In article PMC6694155, “PTPσ inhibitors promote hematopoietic stem cell regeneration” (Nature Communications, 2019):
Where “and” joins values, the source holds several entries; their conditions need not be identical. Equal entries are not always repeated. Entries after “also recorded” stand apart in the source; their conditions may differ.

Columns and labels:
[1] = target: T1, PTPMEG2 (Protein Tyrosine Phosphatase Non-Receptor Type 9) (Homo sapiens, UniProt P43378); test: PhosphataseProfiler screen: PTPMEG2; type: biochemical; conditions: replicates
T1 construct: purchased Eurofins Pharma Discovery Services UK
T1 sequence (P43378 whole entry): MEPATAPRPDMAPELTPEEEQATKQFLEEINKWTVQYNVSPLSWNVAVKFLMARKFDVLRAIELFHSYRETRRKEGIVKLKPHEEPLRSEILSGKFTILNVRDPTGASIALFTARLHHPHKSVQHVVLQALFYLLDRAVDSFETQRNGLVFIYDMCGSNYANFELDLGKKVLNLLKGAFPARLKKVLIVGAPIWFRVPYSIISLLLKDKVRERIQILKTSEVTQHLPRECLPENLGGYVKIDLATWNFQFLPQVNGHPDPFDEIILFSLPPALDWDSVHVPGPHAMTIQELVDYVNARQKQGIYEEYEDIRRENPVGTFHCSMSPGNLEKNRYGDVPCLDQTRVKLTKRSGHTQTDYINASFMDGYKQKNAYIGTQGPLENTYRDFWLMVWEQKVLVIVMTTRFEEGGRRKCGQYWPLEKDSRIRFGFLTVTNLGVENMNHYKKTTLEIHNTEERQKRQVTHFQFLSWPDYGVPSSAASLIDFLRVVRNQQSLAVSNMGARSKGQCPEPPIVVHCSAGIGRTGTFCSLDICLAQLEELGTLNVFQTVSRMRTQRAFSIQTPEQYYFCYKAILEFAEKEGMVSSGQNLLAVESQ
Method: (§1) Compound DJ001 was evaluated in a PhosphataseProfiler™ screen at 10 μM and 1 μM (2.7 μg/mL and 0.27 μg/mL) concentrations at Eurofins Pharma Discovery Services UK (Study number UK022-0004033) against a panel of 21 Phosphatases. In each experiment, the respective reference antagonist/agonist was tested directly with DJ001 and the data were compared with historical values determined at Eurofins. DJ001 compound inhibition was calculated as percentage inhibition of the enzymatic activity compared with control.

[2] = target: T2, PPα (Protein Phosphatase 1 Catalytic Subunit alpha) (Homo sapiens, UniProt P62136); test: PhosphataseProfiler screen: PPα; type: biochemical; conditions: replicates
T2 construct: purchased Eurofins Pharma Discovery Services UK
T2 sequence (P62136 whole entry): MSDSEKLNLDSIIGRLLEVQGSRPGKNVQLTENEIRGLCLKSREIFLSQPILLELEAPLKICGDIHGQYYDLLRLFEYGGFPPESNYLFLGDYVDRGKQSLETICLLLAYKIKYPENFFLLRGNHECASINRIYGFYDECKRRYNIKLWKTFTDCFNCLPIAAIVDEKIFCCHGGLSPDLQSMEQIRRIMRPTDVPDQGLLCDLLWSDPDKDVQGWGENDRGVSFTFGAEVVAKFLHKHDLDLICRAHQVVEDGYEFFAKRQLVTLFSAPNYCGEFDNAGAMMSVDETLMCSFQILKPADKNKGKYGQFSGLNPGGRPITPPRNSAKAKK
Method: as §1

BM KSL cells = test: Transendothelial migration assay; type: cell-based, mouse
Method: For the transendothelial migration assay,VeraVec^TM mouse spleen ECs (Angiocrine Biosciences) were cultured to confluence in […] pore transwells (Corning Incorporated). Transwells were then seeded with 50,000 sorted BM KSL cells in IMDM with 10% FBS, 1% pen-strep, 20 ng/mL TPO, 125 ng/mL SCF, and 50 ng/mL Flt3 ligand with or without 1 µg/mL of DJ001. SDF-1, 500 ng/mL (R&D Systems), was added to the bottom chamber of the transwell. At 18 h post incubation, cells in the bottom chamber were collected and cell counts were performed.

[3] = target: T3, CD45 (Protein Tyrosine Phosphatase, receptor type C) (Homo sapiens, UniProt P08575); test: PhosphataseProfiler screen: CD45; type: biochemical; conditions: replicates
T3 construct: purchased Eurofins Pharma Discovery Services UK
T3 sequence (P08575 26-1306, species assumed): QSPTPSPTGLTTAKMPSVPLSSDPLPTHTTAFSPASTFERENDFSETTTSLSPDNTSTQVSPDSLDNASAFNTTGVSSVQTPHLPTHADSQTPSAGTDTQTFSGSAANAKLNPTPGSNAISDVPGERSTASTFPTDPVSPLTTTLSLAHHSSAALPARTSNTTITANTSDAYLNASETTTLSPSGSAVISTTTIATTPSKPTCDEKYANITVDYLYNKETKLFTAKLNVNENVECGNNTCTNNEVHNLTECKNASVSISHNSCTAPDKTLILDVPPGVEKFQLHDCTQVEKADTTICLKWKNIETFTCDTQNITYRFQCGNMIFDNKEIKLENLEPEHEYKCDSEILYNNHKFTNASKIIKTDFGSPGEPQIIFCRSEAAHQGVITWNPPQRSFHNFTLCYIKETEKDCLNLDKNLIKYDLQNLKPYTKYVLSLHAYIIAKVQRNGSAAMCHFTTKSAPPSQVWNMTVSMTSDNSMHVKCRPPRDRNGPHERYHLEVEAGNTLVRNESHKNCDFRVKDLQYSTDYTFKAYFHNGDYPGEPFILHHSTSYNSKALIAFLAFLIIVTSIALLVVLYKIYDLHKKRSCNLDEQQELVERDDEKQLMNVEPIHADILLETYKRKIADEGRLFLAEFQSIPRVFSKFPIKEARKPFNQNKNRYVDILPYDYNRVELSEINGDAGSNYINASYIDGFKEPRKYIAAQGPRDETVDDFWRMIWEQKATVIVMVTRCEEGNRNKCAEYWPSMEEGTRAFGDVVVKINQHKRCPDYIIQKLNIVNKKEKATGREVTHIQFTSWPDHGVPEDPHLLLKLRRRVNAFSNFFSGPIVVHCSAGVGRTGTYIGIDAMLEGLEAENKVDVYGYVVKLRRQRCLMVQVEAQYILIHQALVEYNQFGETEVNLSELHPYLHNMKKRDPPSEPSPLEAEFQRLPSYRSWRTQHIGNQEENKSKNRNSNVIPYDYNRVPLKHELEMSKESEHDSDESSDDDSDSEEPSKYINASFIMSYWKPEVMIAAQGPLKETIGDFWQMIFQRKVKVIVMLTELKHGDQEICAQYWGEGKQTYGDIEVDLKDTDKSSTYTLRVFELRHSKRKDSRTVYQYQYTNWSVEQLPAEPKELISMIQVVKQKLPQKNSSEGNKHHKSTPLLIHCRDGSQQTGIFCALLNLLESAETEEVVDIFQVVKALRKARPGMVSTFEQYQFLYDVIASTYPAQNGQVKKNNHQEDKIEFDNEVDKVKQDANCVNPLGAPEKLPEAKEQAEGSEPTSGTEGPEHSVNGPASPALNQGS
Method: as §1

panel of 21 Phosphatases = test: PhosphataseProfiler screen, whole panel; type: biochemical; conditions: DJ001 at 10 μM and 1 μM
Method: as §1

[4] = test system: progeny of irradiated human BM CD34+ cells in NSG mice; test: Human BM transplantation assay in NSG mice; type: in vivo
Method: Human BM mononuclear cells were purchased from AllCells. Cryopreserved human BM cells were recovered in IMDM + 10% FBS + 1% penicillin–streptomycin and then positively selected for CD34^+ stem/progenitor cells by using CD34 MicroBead Kit (Miltenyi Biotec, #130-046-702, 1:5). CD34^+ cells were cultured in human TSF media (IMDM, 10%FBS, 1% pen-strep, 20 ng/mL recombinant human TPO, 125 ng/mL recombinant human SCF, 50 ng/mL recombinant human Flt3 ligand (R&D Systems). The progeny of 2 × 10^5 irradiated, human BM CD34^+ cultured for 36 h and treated with DJ001 at 5 μg/mL, were transplanted via tail vein injection into 10–12-week-old NSG mice preconditioned with 275 cGy TBI. Multilineage donor hematopoietic cell engraftment was monitored in the PB and BM by flow cytometry. The PB or BM cells were stained with BV605-conjugated anti-mouse CD45 (BioLegend, #103139, 1:100), AF647-conjugated anti-human CD34 (BioLegend, #343618, 1:100), FITC-conjugated anti-human CD33 (BD Biosciences, #555626, 1:100), V450-conjugated anti-human CD45 (BD Biosciences, #560368, 1:100), APC-conjugated anti-human CD3 (BD Biosciences, #555342, 1:100), and APC-Cy7-conjugated anti-human CD19 (BD Biosciences, #557791, 1:100) antibodies.

RAC1-GTP in BM KSL cells = test: RAC1-GTP intracellular flow cytometry of BM KSL cells; type: cell-based, mouse; parameters: Figure 3c: RAC1-GTP in BM KSL cells: unit not given here; conditions: for Figure 3c: RAC1-GTP in BM KSL cells: individual replicates
Method: Intracellular flow cytometric analysis was performed on irradiated (300 cGy) or non-irradiated, sorted KSL cells after treatment with 1 μg/mL DJ001 or control (equal volumes of DMSO) for 24 h. At 24 h after irradiation, cells were fixed with 4% PFA for 10 min, followed by permeabilization using 0.25% saponin in PBS. Cells were washed again and stained with antibody at the recommended concentrations for 30 min at RT. Intracellular antibodies and phospho-flow antibodies used were as follows: FITC-conjugated anti-BCL-XL (Abcam, #26148, 1:100), active RAC1-GTP antibody (NewEast Biosciences, #26903, 1:100) and anti-PAK1 (phospho S144) + PAK2 (phospho S141) + PAK3 (phospho S154) antibody (Abcam, #40795, 1:100), and FITC-conjugated goat anti-rabbit IgG H&L (Abcam, #97050, 1:200).

[5] = target: T4, PTPσ-p250GAP complex in BM KSL cells (Mus musculus, UniProt B0V2N1); test: Proximity ligation assay; type: cell-based; conditions: 1 μg/mL DJ001, 1 h
T4 construct: endogenous in cells; host or cells: primary bone marrow KSL (c-kit+ Sca-1+ lin-) cells of C57BL/6 mice
T4 sequence (B0V2N1 30-1907, one chain of several): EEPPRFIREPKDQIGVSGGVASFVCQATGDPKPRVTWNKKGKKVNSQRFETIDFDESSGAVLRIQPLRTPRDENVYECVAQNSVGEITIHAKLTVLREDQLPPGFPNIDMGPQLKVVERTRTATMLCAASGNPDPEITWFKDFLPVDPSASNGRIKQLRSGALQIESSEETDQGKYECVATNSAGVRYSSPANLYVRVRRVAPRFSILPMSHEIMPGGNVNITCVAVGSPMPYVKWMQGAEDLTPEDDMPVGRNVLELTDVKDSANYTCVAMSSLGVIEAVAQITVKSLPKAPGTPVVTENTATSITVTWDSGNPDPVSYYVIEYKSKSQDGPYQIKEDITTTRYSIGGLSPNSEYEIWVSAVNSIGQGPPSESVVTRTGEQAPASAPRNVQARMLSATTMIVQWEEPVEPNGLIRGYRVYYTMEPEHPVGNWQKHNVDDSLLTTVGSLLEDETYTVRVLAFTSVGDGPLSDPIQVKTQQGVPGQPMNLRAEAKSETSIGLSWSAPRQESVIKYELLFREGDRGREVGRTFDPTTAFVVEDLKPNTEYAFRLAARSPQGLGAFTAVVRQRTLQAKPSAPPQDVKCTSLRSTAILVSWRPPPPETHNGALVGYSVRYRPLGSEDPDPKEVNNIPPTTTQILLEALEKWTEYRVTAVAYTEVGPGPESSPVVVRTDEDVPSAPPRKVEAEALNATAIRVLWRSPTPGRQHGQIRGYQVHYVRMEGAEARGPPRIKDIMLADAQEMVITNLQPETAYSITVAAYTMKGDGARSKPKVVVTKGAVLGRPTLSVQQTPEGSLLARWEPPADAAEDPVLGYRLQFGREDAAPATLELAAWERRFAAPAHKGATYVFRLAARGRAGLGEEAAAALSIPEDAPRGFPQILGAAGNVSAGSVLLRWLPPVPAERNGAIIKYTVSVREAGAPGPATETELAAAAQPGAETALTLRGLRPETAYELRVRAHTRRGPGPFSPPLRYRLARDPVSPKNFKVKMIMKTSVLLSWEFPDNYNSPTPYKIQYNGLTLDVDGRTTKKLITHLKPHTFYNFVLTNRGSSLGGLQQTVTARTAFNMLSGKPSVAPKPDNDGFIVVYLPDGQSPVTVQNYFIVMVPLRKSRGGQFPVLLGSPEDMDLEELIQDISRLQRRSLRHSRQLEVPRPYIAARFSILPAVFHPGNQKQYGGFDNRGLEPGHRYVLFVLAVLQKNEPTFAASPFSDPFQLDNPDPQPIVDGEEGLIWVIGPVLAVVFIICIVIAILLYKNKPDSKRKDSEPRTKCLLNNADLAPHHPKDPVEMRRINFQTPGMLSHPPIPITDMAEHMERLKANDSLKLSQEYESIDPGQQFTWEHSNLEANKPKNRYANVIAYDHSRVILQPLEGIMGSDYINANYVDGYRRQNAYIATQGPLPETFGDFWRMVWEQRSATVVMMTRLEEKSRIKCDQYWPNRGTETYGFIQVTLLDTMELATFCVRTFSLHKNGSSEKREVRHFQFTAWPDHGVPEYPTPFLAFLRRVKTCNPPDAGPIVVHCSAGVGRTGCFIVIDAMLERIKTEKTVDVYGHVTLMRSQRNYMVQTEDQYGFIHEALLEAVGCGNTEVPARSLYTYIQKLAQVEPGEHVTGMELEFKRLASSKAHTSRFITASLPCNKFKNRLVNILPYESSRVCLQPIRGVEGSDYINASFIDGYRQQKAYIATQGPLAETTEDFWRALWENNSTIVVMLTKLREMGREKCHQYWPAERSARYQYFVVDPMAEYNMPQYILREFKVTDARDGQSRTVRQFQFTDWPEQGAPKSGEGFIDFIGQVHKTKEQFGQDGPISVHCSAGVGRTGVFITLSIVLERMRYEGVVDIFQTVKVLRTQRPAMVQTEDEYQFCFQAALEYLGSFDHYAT
Method: A PLA assay was performed by using the Duolink In Situ Red Starter Kit (Millipore Sigma) to detect the binding between PTPσ and p250GAP proteins. BM KSL cells from C57BL/6 mice were sorted by fluorescence-activated cell sorting and then plated onto fibronectin pre-coated chamber slides overnight. The next day, cells were treated with 1 μg/mL DJ001 or vehicle (equal volume of DMSO) for 1 h at 37 °C. Cells were then fixed with 4% paraformaldehyde (PFA) for 20 min. The slides were blocked with Duolink blocking solution and incubated with rabbit anti-ARHGAP32 polyclonal antibody (Bioss Antibodies, #bs-9296R, 1:50 dilution) and goat anti-PTPσ (K-19) polyclonal antibody (Santa Cruz Biotechnology, #sc-10873, 1:50) overnight at 4 °C. Cells were imaged using a Leica SP8 Confocal Microscope equipped with a ×63 objective lens. A white light laser set to 580 nm was used to excite dsRed and a UV laser was used to excite 4′,6-diamidino-2-phenylindole (DAPI). Analysis was performed using the spots detection function in IMARIS 9.0.2 (Bitplane).

[6] = progeny of irradiated human BM CD34+ cells, individual mice, in % (unit assumed)

O=C(/C=C\Nc1cccc([N+](=O)[O-])c1)c1ccccc1 [DJ001, (Z)-3-((3-nitrophenyl)amino)-1-phenylprop-2-en-1-one]
Supplementary Figure 1: PTP MEG2 activity ([1]; 0.27 μg/mL DJ001): 94 (2×) and 103
Supplementary Figure 1: PTP MEG2 activity ([1]; 2.7 μg/mL DJ001): 91 and 71 and 95
Supplementary Figure 1: PP activity ([2]; 2.7 μg/mL DJ001): 87 and 90 and 89
Supplementary Figure 1: PP activity ([2]; 0.27 g/mL DJ001): 99 and 95 (2×)
in vitro migration of BM KSL cells through EC monolayers (BM KSL cells; 1 µg/mL DJ001, 18 h): did not alter the in vitro migration
number of cells within the lower chambers, per replicate (Supplementary Figure 8a) (BM KSL cells; 1 µg/ml DJ001, 18 hours): 17.5 and 8.74 and 19.1 and 21.8 and 10.9
Supplementary Figure 1: CD45 activity ([3]; 0.27 μg/mL DJ001): 91 and 86 and 84
Supplementary Figure 1: CD45 activity ([3]; 2.7 μg/mL DJ001): 71 and 85 and 86
inhibitory activity against 20 other phosphatases (panel of 21 Phosphatases): no inhibitory activity
engraftment of human CD45+ cells, CD19+ B cells, CD33+ myeloid cells, and CD3+ T cells vs control ([4]; NSG mice, 12 weeks post transplant): several – fold increased multilineage engraftment; also recorded: substantially increased engraftment
Figure 5g (center left panel): human engraftment in NSG mice [4, 6]: 0.66 and 2.13 and 0.13 and 1.76 and 1.28 and 0.22 and 0.24 and 0.04 and 0.73 and 2.53 and 0.35
Figure 5g (center panel): human engraftment in NSG mice [4, 6]: 2.25 and 0.8 and 0.17 and 0.56 and 4.4 and 0.31 and 5 and 1.4 and 1.23 and 5.34 and 6.53
Figure 5g (center right panel): human engraftment in NSG mice [4, 6]: 0.24 and 0.34 and 1.91 and 0.16 and 0.67 and 0.92 and 0.14 and 0.94 and 0.48 and 4.07 and 1.41 and 1.1
Figure 5g (left panel): human engraftment in NSG mice [4, 6]: 4.16 and 2.8 and 0.36 and 1.45 and 9.56 and 0.9 and 12.2 and 3.82 and 4.68 and 14.9 and 12.5
Figure 5g (right panel): human engraftment in NSG mice [4, 6]: 0.25 and 1.48 and 0.96 and 0.1 and 0.49 and 1.86 and 0.23 and 1.47 and 1.13 and 2 and 5.49 and 5.38
RAC1-GTP levels (RAC1-GTP in BM KSL cells; BM KSL cells from Ptprs+/+ mice): rapid increase in RAC1-GTP levels
RAC1-GTP levels (RAC1-GTP in BM KSL cells; BM KSL cells from Ptprs−/− mice): no change in RAC1-GTP levels
Figure 3c: RAC1-GTP in BM KSL cells (RAC1-GTP in BM KSL cells; Ptprs+/+ cells): 42 and 37.6 and 37.8 and 37.4 and 37.3
Figure 3c: RAC1-GTP in BM KSL cells (RAC1-GTP in BM KSL cells; Ptprs-/- cells): 84.6 and 83.8 and 81.9 and 85.5 and 85.6
co-localization of PTPσ and p250GAP [5]: significantly decreased co-localization
